Source: patent publication US9463247B2, “Branched alkyl and cycloalkyl terminated biodegradable lipids for the delivery of active agents” (ALNYLAM PHARMACEUTICALS, INC., priority 2011, dated 2016)

Test system: Factor VII (FVII)
Test: In vivo determination of efficacy of lipid formulations: FVII knockdown in mice (Biophen FVII chromogenic assay)
Parameters: species or system mouse (C57Bl/6)
Conditions: FVII siRNA lipid formulation containing the cationic lipid; i.v. lateral tail vein; female C57Bl/6 mice; serum 24 hours later; dose resulting in a 50% reduction in plasma FVII levels compared to control animals
Experimental: Test formulations were prepared using the following in-line mixing method: […]
Individual and separate stock solutions are prepared—one containing lipid and the other siRNA. Lipid stock containing lipid A, DSPC, cholesterol and PEG lipid is prepared by solubilized in 90% ethanol. The remaining 10% is low pH citrate buffer. The concentration of the lipid stock is 4 mg/mL. The pH of this citrate buffer can range between pH 3-5, depending on the type of fusogenic lipid employed. The siRNA is also solubilized in citrate buffer at a concentration of 4 mg/mL. For small scale, 5 mL of each stock solution is prepared.
Stock solutions are completely clear and lipids must be completely solubilized before combining with siRNA. Therefore stock solutions may be heated to completely solubilize the lipids. The siRNAs used in the process may be unmodified oligonucleotides or modified and may be conjugated with lipophilic moieties such as cholesterol.
The individual stocks are combined by pumping each solution to a T-junction. A dual-head Watson-Marlow pump is used to simultaneously control the start and stop of the two streams. A 1.6 mm polypropylene tubing is further downsized to a 0.8 mm tubing in order to increase the linear flow rate. The polypropylene line (ID=0.8 mm) are attached to either side of a T-junction. The polypropylene T has a linear edge of 1.6 mm for a resultant volume of […]. Each of the large ends (1.6 mm) of polypropylene line is placed into test tubes containing either solubilized lipid stock or solubilized siRNA. After the T-junction a single tubing is placed where the combined stream will emit. The tubing is then extending into a container with 2× volume of PBS. The PBS is rapidly stirring. The flow rate for the pump is at a setting of 300 rpm or 110 mL/min. Ethanol is removed and exchanged for PBS by dialysis. The lipid formulations are then concentrated using centrifugation or diafiltration to an appropriate working concentration.
Test formulations are initially assessed for their FVII knockdown in female 7-9 week old, 15-25 g, female C57Bl/6 mice at 0.1, 0.3, 1.0 and 5.0 mg/kg with 3 mice per treatment group. All studies include animals receiving either phosphate-buffered saline (PBS, Control group) or a benchmark formulation. Formulations are diluted to the appropriate concentration in PBS immediately prior to testing. Mice are weighed and the appropriate dosing volumes calculated (10 μl/g body weight). Test and benchmark formulations as well as PBS (for Control animals) are administered intravenously via the lateral tail vein. Animals are anesthetised 24 hours later with an intraperitoneal injection of Ketamine/Xylazine and 500-700 μl of blood is collected by cardiac puncture into serum separator tubes (BD Microtainer). Blood is centrifuged at 2,000×g for 10 minutes at 15° C. and serum is collected and stored at −70° C. until analysis. Serum samples are thawed at 37° C. for 30 minutes, diluted in PBS and aliquoted into 96-well assay plates. Factor VII levels are assessed using a chromogenic assay (Biophen FVII kit, Hyphen BioMed) according to manufacturer's instructions and absorbance is measured in a microplate reader equipped with a 405 nm wavelength filter. Plasma FVII levels are quantified and ED50s (dose resulting in a 50% reduction in plasma FVII levels compared to control animals) calculated using a standard curve generated from a pooled sample of serum from control animals. Those formulations of interest showing high levels of FVII knockdown (ED50<<0.1 mg/kg) are re-tested in independent studies at a lower dose range to confirm potency and establish ED50 levels.

| Compound | ED50 (Mouse FVII) [mg/kg] |
| --- | --- |
| CCCCC(C)C(=O)OCCCCCCCCCC(CCCCCCCCCOC(=O)C(C)CCCC)OC(=O)CCCN(C)C (centres unmarked) | >0.30 |
| CN(C)CCCC(=O)OC(CCCCCCCCCOC(=O)CCC1CCCC1)CCCCCCCCCOC(=O)CCC1CCCC1 | 0.023 |
| CCCCC(CCCC)OC(=O)CCCCCC(CCCCCC(=O)OC(CCCC)CCCC)OC(=O)CCCN(C)C | >0.30 |
| CC(OCCCCCCCCCC(CCCCCCCCCOC(=O)C1CCCCC1)OC(=O)CCCN(C)C)C1CCCCC1 (centres unmarked) | 0.032 |
| CN(C)CCCC(=O)OC(CCCCCC(=O)OC1CCCCC1)CCCCCC(=O)OC1CCCC1 (centres unmarked) | >0.30 |
| CN(C)CCCC(=O)OC(CCCCCC(=O)OC1CCCC1)CCCCCC(=O)OC1CCCC1 | >0.30 |
| CN(C)CCCC(=O)OC(CCCCCCCCC(=O)OC1CCCCC1)CCCCCCCCC(=O)OC1CCCCC1 | >0.30 |
| CN(C)CCCC(=O)OC(CCCCCCCCCOC(=O)C1CCCC1)CCCCCCCCCOC(=O)C1CCCC1 | >0.30 |
| CN(C)CCCC(=O)OC(CCCCCCCCC(=O)OCCCC1CCCC1)CCCCCCCCC(=O)OCCCC1CCCC1 | 0.12 |
| CN(C)CCCC(=O)OC(CCCCCCCCC(=O)OC1CCCC1)CCCCCCCCC(=O)OC1CCCC1 | >0.30 |
| CCCCC(CC)C(=O)OCCCCCCCCCC(CCCCCCCCCOC(=O)C(CC)CCCC)OC(=O)CCCN(C)C (centres unmarked) [drawing 162] | 0.088 |
| CCCCC(CC)C(=O)OCCCCCCCCCC(CCCCCCCCCOC(=O)C(CC)CCCC)OC(=O)CCCN(C)C (centres unmarked) [drawing 149] | 0.005 |
| CCCCC(CCCC)OC(=O)CCCCCCCCC(CCCCCCCCC(=O)OC(CCCC)CCCC)OC(=O)CCCN(C)C | 0.010 |
| CCCCCC(CC)C(=O)OCCCCCCCCCC(CCCCCCCCCOC(=O)C(CC)CCCCC)OC(=O)CCCN(C)C (centres unmarked) | 0.008 |
| CCCCCC(CCCC)OC(=O)CCCCCCCCC(CCCCCCCCC(=O)OC(CCCC)CCCCC)OC(=O)CCCN(C)C (centres unmarked) | 0.009 |
| CCCCCCOC(=O)CCCCCCCCCCCC(CCCCCCCCCCCC(=O)OCCCCCC)OC(=O)CCCN(C)C | 0.013 |
| CC(C)CC(CC(C)C)OC(=O)CCCCCCCCCCCC(CCCCCCCCCCCC(=O)OC(CC(C)C)CC(C)C)OC(=O)CCCN(C)C | 0.020 |
